Results published in the supplement of paper PMC11061612.

Columns and labels:
Test in all cases: Bliss excess, mean over the matrix (fraction); higher = more synergy
A375 (Melanoma) = tested on: A375 (Melanoma)
Outline: (§1)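 Bliss excess equals the observed combination effect minus the expected value EA + EB − EA·EB, where EA and EB are the effects of each agent alone. Combination Emax is the second-highest inhibition within the matrix. Inhibition was scaled from CellTiter-Glo 2.0 luminescence, with 0 set by vehicle wells and 1 by blank wells, after 72 hours of two-drug dosing of cells plated in 1536-well plates.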

[1] = tested on: C2BBe1 (Colorectal Carcinoma)
Outline: as §1

C32 (Melanoma) = tested on: C32 (Melanoma)
Outline: as §1

[2] = tested on: COR-L105 (Lung Adenocarcinoma)
Outline: as §1

[3] = tested on: Daudi (Burkitt's Lymphoma)
Outline: as §1

[4] = tested on: GRANTA-519 (B-Cell Non-Hodgkin's Lymphoma)
Outline: as §1

[5] = tested on: HT-1197 (Bladder Carcinoma)
Outline: as §1

[6] = tested on: IGROV-1 (Ovarian Carcinoma)
Outline: as §1

[7] = tested on: L-363 (Plasma Cell Myeloma)
Outline: as §1

[8] = tested on: MDA-MB-175-VII (Breast Carcinoma)
Outline: as §1

[9] = tested on: MRK-nu-1 (Breast Carcinoma)
Outline: as §1

[10] = tested on: NCI-H1048 (Small Cell Lung Carcinoma)
Outline: as §1

[11] = tested on: NCI-H1944 (Lung Adenocarcinoma)
Outline: as §1

[12] = tested on: NCI-H2170 (Squamous Cell Lung Carcinoma)
Outline: as §1

[13] = tested on: OCI-M1 (Acute Myeloid Leukemia)
Outline: as §1

[14] = tested on: OVKATE (Ovarian Carcinoma)
Outline: as §1

[15] = tested on: SBC-5 (Small Cell Lung Carcinoma)
Outline: as §1

SK-N-DZ (Neuroblastoma) = tested on: SK-N-DZ (Neuroblastoma)
Outline: as §1

[16] = tested on: SW1463 (Colorectal Carcinoma)
Outline: as §1

[17] = tested on: TK (B-Cell Non-Hodgkin's Lymphoma)
Outline: as §1

Compound | Bliss excess (A375 (Melanoma)) | Bliss excess [1] | Bliss excess (C32 (Melanoma)) | Bliss excess [2] | Bliss excess [3] | Bliss excess [4] | Bliss excess [5] | Bliss excess [6] | Bliss excess [7] | Bliss excess [8] | Bliss excess [9] | Bliss excess [10] | Bliss excess [11] | Bliss excess [12] | Bliss excess [13] | Bliss excess [14] | Bliss excess [15] | Bliss excess (SK-N-DZ (Neuroblastoma)) | Bliss excess [16] | Bliss excess [17]
CN(C)CCCOc1ccc(-c2ccc3ncc4c(c3c2)n(C2CCOCC2)c(=O)n4C)cn1 [AZD0156] + C=CCn1c(=O)c2cnc(Nc3ccc(N4CCN(C)CC4)cc3)nc2n1-c1cccc(C(C)(C)O)n1 [AZD1775] (first compound max 1 µM, partner max 1 µM) | -0.0275 | 0.0003 | -0.0348 | -0.0414 | -0.0243 | -0.0268 | -0.102 | -0.0826 | 0.0057 | -0.0589 | -0.0082 | -0.0815 | -0.0218 | 0.0914 | 0.0077 | -0.0601 | -0.018 | -0.0179 | -0.0323 | -0.0045
CN(C)CCCOc1ccc(-c2ccc3ncc4c(c3c2)n(C2CCOCC2)c(=O)n4C)cn1 [AZD0156] + CCN(CCO)CCCOc1ccc2c(Nc3cc(CC(=O)Nc4cccc(F)c4)[nH]n3)ncnc2c1 [AZD2811] (first compound max 1 µM, 7x7, partner max 1 µM) | -0.0112 | -0.0183 | -0.0213 | -0.0457 | 0.107 | 0.0447 | -0.0376 | -0.0527 | 0.0096 | -0.018 | 0.0186 | -0.0053 | -0.0077 | -0.0136 | 0.042 | -0.0648 | 0.0184 | 0.0526 | -0.0322 | 0.0495
CN(C)CCCOc1ccc(-c2ccc3ncc4c(c3c2)n(C2CCOCC2)c(=O)n4C)cn1 [AZD0156] + C[C@@H]1COCCN1C2=NC(=NC(=C2)C3(CC3)[S@](=N)(=O)C)C4=C5C=CNC5=NC=C4 [AZD6738] (first compound max 1 µM, 7x7, partner max 10 µM) | 0.0378 | -0.0234 | -0.0323 | -0.0779 | -0.0031 | -0.0335 | -0.0362 | -0.0187 | 0.0767 | -0.0122 | -0.0411 | -0.0129 | 0.0062 | 0.0947 | 0.0352 | -0.0189 | 0.0116 | 0.031 | -0.0057 | 0.0289
CN(C)CCCOc1ccc(-c2ccc3ncc4c(c3c2)n(C2CCOCC2)c(=O)n4C)cn1 [AZD0156] + O=C(c1cc(Cc2n[nH]c(=O)c3ccccc23)ccc1F)N1CCN(C(=O)C2CC2)CC1 [Olaparib] (first compound max 3 µM, partner max 3 µM) | 0.0591 | -0.0428 | -0.035 | 0.0527 | 0.0672 | 0.0079 | -0.0404 | 0.0623 | -0.0073 | -0.0365 | -0.0198 | 0.0772 | 0.106 | 0.0947 | 0.17 | 0.0008 | 0.0732 | -0.0533 | -0.035 | 0.0213
C=CCn1c(=O)c2cnc(Nc3ccc(N4CCN(C)CC4)cc3)nc2n1-c1cccc(C(C)(C)O)n1 [AZD1775] + C[C@@H]1COCCN1C2=NC(=NC(=C2)C3(CC3)[S@](=N)(=O)C)C4=C5C=CNC5=NC=C4 [AZD6738] (first compound max 1 µM, partner max 10 µM) | 0.0154 | 0.0278 | 0.0073 | -0.0411 | 0.0329 | 0.0068 | -0.0057 | -0.0348 | 0.0474 | -0.0184 | 0.0633 | 0.0582 | 0.0456 | -0.0253 | 0.0327 | -0.0703 | 0.0037 | 0.0094 | -0.0807 | 0.0031
C=CCn1c(=O)c2cnc(Nc3ccc(N4CCN(C)CC4)cc3)nc2n1-c1cccc(C(C)(C)O)n1 [AZD1775] + O=C(c1cc(Cc2n[nH]c(=O)c3ccccc23)ccc1F)N1CCN(C(=O)C2CC2)CC1 [Olaparib] (first compound max 1 µM, partner max 10 µM) | -0.0161 | -0.0322 | -0.0271 | -0.0881 | 0.0043 | -0.0679 | -0.0023 | -0.0797 | -0.0153 | -0.0351 | -0.0311 | -0.0389 | -0.043 | -0.008 | -0.0374 | -0.0316 | -0.0435 | -0.0122 | -0.0418 | -0.0318
CCN(CCO)CCCOc1ccc2c(Nc3cc(CC(=O)Nc4cccc(F)c4)[nH]n3)ncnc2c1 [AZD2811] + C=CCn1c(=O)c2cnc(Nc3ccc(N4CCN(C)CC4)cc3)nc2n1-c1cccc(C(C)(C)O)n1 [AZD1775] (first compound max 1 µM, partner max 1 µM) | 0.0143 | 0.024 | -0.0354 | -0.0415 | 0.0733 | -0.013 | -0.114 | -0.0034 | -0.0312 | -0.0427 | 0.0147 | 0.0662 | 0.0422 | 0.051 | 0.058 | -0.0565 | 0.114 | -0.0289 | -0.0023 | 0.0069
CCN(CCO)CCCOc1ccc2c(Nc3cc(CC(=O)Nc4cccc(F)c4)[nH]n3)ncnc2c1 [AZD2811] + C[C@@H]1COCCN1C2=NC(=NC(=C2)C3(CC3)[S@](=N)(=O)C)C4=C5C=CNC5=NC=C4 [AZD6738] (first compound max 1 µM, 7x7, partner max 10 µM) | -0.0573 | -0.0362 | -0.0803 | -0.0679 | 0.0457 | -0.0269 | -0.0441 | -0.0453 | -0.0485 | -0.0307 | -0.077 | -0.0304 | -0.0415 | -0.0191 | 0.0009 | -0.0822 | -0.0236 | -0.0507 | -0.0218 | -0.0108
CCN(CCO)CCCOc1ccc2c(Nc3cc(CC(=O)Nc4cccc(F)c4)[nH]n3)ncnc2c1 [AZD2811] + O=C(c1cc(Cc2n[nH]c(=O)c3ccccc23)ccc1F)N1CCN(C(=O)C2CC2)CC1 [Olaparib] (first compound max 1 µM, 7x7, partner max 10 µM) | 0.0039 | -0.0112 | -0.0056 | -0.0311 | 0.104 | 0.0274 | 0.0045 | 0.0329 | 0.0025 | -0.0012 | -0.0037 | -0.0161 | 0.0069 | 0.0044 | 0.0337 | -0.0481 | 0.033 | -0.0696 | 0.0014 | 0.0322
CN(CCO)CC[C@H](CSc1ccccc1)Nc1ccc(S(=O)(=O)NC(=O)c2ccc(N3CCC([C@@H](O)c4ccccc4-c4ccc(Cl)cc4)CC3)cc2)cc1S(=O)(=O)C(F)(F)F [AZD4320] + C1CN(CCC1(C(=O)N[C@@H](CCO)C2=CC=C(C=C2)Cl)N)C3=NC=NC4=C3C=CN4 [Capivasertib] (first compound max 1 µM, 7x7, partner max 3 µM) | -0.0414 | -0.0214 | -0.0564 | -0.0378 | -0.0512 | -0.0649 | 0.0311 | -0.0385 | 0.0659 | 0.0425 | -0.0681 | 0.0513 | -0.0508 | -0.023 | -0.0161 | -0.0775 | -0.0207 | -0.0417 | -0.0497 | 0.0106
CN(CCO)CC[C@H](CSc1ccccc1)Nc1ccc(S(=O)(=O)NC(=O)c2ccc(N3CCC([C@@H](O)c4ccccc4-c4ccc(Cl)cc4)CC3)cc2)cc1S(=O)(=O)C(F)(F)F [AZD4320] + C=CCn1c(=O)c2cnc(Nc3ccc(N4CCN(C)CC4)cc3)nc2n1-c1cccc(C(C)(C)O)n1 [AZD1775] (first compound max 1 µM, partner max 1 µM) | 0.0133 | -0.0286 | 0.108 | 0.0129 | -0.0249 | 0.0729 | 0.0626 | 0.0505 | 0.032 | 0.0035 | -0.0295 | 0.27 | 0.0312 | 0.0131 | 0.0479 | 0.0271 | 0.0264 | 0.0351 | -0.044 | 0.0407
CN(CCO)CC[C@H](CSc1ccccc1)Nc1ccc(S(=O)(=O)NC(=O)c2ccc(N3CCC([C@@H](O)c4ccccc4-c4ccc(Cl)cc4)CC3)cc2)cc1S(=O)(=O)C(F)(F)F [AZD4320] + CN(C)CCCOc1ccc(-c2ccc3ncc4c(c3c2)n(C2CCOCC2)c(=O)n4C)cn1 [AZD0156] (first compound max 1 µM, 7x7, partner max 1 µM) | -0.0357 | -0.0443 | -0.0182 | -0.031 | -0.0133 | 0.007 | -0.0506 | -0.0848 | -0.0005 | -0.0322 | -0.0133 | 0.0406 | -0.0289 | -0.0054 | -0.0094 | -0.104 | -0.0481 | 0.0238 | -0.06 | 0.0083
CN(CCO)CC[C@H](CSc1ccccc1)Nc1ccc(S(=O)(=O)NC(=O)c2ccc(N3CCC([C@@H](O)c4ccccc4-c4ccc(Cl)cc4)CC3)cc2)cc1S(=O)(=O)C(F)(F)F [AZD4320] + C[C@@H]1COCCN1C2=NC(=NC(=C2)C3(CC3)[S@](=N)(=O)C)C4=C5C=CNC5=NC=C4 [AZD6738] (first compound max 1 µM, 7x7, partner max 10 µM) | -0.0221 | -0.14 | 0.0653 | -0.0711 | -0.0403 | -0.0075 | -0.0672 | -0.0353 | -0.007 | -0.0429 | 0.0039 | 0.0634 | -0.0227 | -0.0478 | 0.0051 | -0.0581 | -0.0511 | -0.0559 | -0.0236 | 0.0338
C[C@@H]1COCCN1c1cc(C2([S@](C)(=N)=O)CC2)nc(-c2ccnc3[nH]ccc23)n1 [AZD6738] + O=C(c1cc(Cc2n[nH]c(=O)c3ccccc23)ccc1F)N1CCN(C(=O)C2CC2)CC1 [Olaparib] (first compound max 10 µM, 7x7, partner max 10 µM) | 0.0238 | 0.0009 | 0.0019 | -0.0435 | -0.0239 | -0.0308 | -0.0042 | -0.0169 | -0.0892 | 0.0522 | 0.0457 | 0.0581 | 0.0194 | -0.0373 | -0.017 | -0.0115 | 0.0025 | -0.0019 | – | -0.0552
